Test: Light degradation under ICH photo condition
Format: physicochemical

- Stability in solution upon exposure to light: may convert into an alternative isomer
Compound: COc1c(/C=C/c2ccc(NS(C)(=O)=O)cc2)cc(-n2ccc(=O)[nH]c2=O)cc1C(C)(C)C [Compound A, (E)-N-(4-(3-tert-butyl-5-(2,4-dioxo-3,4-dihydropyrimidin-1(2H)-yl)-2-methoxystyryl)phenyl)methanesulfonamide]
